Series [1] in a line: Shake flask solubility measurement. Type of series: physicochemical. To be noted: aqueous buffer, thermodynamic from solid, phosphate buffer pH 7.4, 37° C. As for the experimental part: Compound solubility in aqueous solution is determined by a standard method in the art, the shake flask method. Solubility measurement is performed under equilibrium conditions at pH 7.4. Samples are prepared by dissolving an excess of the test compound in a phosphate buffer (made up of 3,954 g sodium hydrogenphosphate-monohydrate, 6,024 g sodium chloride, 950 ml ultrapure water and adjusted to pH 7.4 with 0.1 M NaOH or 0.1 M HCl). These samples are shaken at 37° C. with 450 rpm (shaker: TiMix control Bühler) for 24 h in total until equilibrium is reached. After 7 hours shaking, the pH value of the sample is controlled and adjusted, if necessary. It is also checked that the sample (test compound) is available in excess. Shortly before the end of 24 h, samples are checked again for pH and precipitate. At the end of 24 h and after separation of the solid by filtration, the concentration of the compound in the filtrate is determined by liquid chromatography using […] (LC-UV).
Sample preparation: Incubation hood: TH 15 Bühler; pH device 766 Calimatic Knick; pH electrode InLab 423 Mettler
Chromatography Conditions:
Column: Chromolith RP18e 100×3 mm
Wavelength range: 190-400 nm • select a suitable evaluation wavelength
Injection volume: Probe 5 μl and 15 μl; Standard 5 μl
Column stove temperature: 37° C.
Eluent A: water/formic acid (999:1; v/v)
Eluent B: acetonitrile/formic acid (999:1; v/v)

In series [2] the target is T1, purified human recombinant MTH1 (human MTH1, residues 42-197) (Homo sapiens, UniProt P36639).
T1 construct: human MTH1, residues 42-197, Uniprot-ID: P36639, expressed in E. coli; made in house; host or cells: E. coli
The series is described as follows: MTH1 enzymatic assay (luminescence-based, PPiLight). Type of series: biochemical. To be noted: Table 2.

pIC50: −log10 of the molar value. Values after ≈ are worked out from the molar mass of the structure shown.

As for `CNc1cc(-c2cccc(Cl)c2Cl)nc(N)n1` [TH-287, reference compound], the solubility at 24 h in series [1] was found to be 22 µg/mL (≈ 81.7 µM). The pIC50 in series [2] was > 9.00.

What is called solubility is the concentration that dissolves in the medium under given conditions. In general, pIC50 refers to the negative decadic logarithm of the IC50, by convention in mol/L.

These data come from patent publication US20180118721A1, “PYRIMIDINE DERIVATIVES” (Merck Patent GmbH, priority 2015, published 2018).
